From patent US20100093864A1, “ANTI-INFECTIVE THIOUREA COMPOUNDS” (LICA PHARMACEUTICALS, priority 2006, published 2010)
≈ marks a conversion by molar mass, not a printed value. Where two headings read alike, the source gives them in different places.

How the values were obtained:
Staphylococcus aureus = experiment: Antibacterial screening (MIC), broth microdilution assay; assay type: cell-based; details: read-out: MIC Staph. aureus
Method: An initial screening for in vitro activity was conducted in a broth microtiter assay. The synthesized compounds were assayed against several […] such as Staphylococcus aureus and 2 different strains of E. coli (including a type strain and an antibiotic-susceptible strain). Following initial screening MICs were determined.
Staphylococcus aureus ATCC29213 Staphylococcus aureus ATCC33591 (MRSA) Eschericia coli ATCC25922 Eschericia coli ESS
The screening was performed with test compounds in 4 different concentrations.
MICs for ATCC type strains fall within the limits posted by the NCCLS (M100-S11) when tested against Vancomycin, Tetracycline and Gentamycin.

[1] = molecular target: bovine serum albumin (BSA) (Bos taurus, UniProt P02769); experiment: Protein binding bioassay: MICs in presence or absence of 40 mg/ml BSA; assay type: in vitro ADME; details: MICs with or without 40 mg/ml BSA
Sequence of bovine serum albumin (BSA) (P02769 25-607): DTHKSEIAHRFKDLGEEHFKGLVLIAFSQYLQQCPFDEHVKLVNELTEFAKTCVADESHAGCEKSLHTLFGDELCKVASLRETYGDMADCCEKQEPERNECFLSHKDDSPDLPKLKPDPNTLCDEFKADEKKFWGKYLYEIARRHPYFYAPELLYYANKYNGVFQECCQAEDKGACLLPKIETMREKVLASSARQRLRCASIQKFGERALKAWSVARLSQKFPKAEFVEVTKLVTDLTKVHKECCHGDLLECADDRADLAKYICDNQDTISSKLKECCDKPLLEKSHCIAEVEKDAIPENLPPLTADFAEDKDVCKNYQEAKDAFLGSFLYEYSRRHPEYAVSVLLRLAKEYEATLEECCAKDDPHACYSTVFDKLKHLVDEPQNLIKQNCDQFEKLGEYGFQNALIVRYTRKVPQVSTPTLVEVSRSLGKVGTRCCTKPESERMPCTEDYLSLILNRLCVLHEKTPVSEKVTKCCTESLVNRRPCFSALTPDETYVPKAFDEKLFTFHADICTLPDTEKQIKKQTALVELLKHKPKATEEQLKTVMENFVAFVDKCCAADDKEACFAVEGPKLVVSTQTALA
Method: Protein binding was performed using a bioassay determining MICs in the presence or absence of 40 mg/ml bovine serum albumin (BSA).

erythrocyte = experiment: Erythrocyte hemolysis assay; assay type: cell-based; details: for 50% Haemolysis: concentration giving 50% haemolysis
[2] = tested on: MCF7 cells (ATCC: HTB 22); experiment: MTT assay on MCF7 cells; assay type: cell-based
Text: The cytotoxicity effect of the compounds at different exposure times as a function of concentration has been tested in an erythrocyte hemolysis assay as well as an MTT assay on MCF7 cells (ATCC: HTB 22).

[3] = Staphylococcus aureus, broth microdilution per NCCLS M7-A5, strain not given

Structure (SMILES) | MIC (Staphylococcus aureus; [3]) [µM] | fraction unbound [1] | Haemolysis 4x MIC (erythrocyte; at 4x MIC) [%] | 50% Haemolysis (erythrocyte) [µM] | MTT [2] [µM] | MIC (Staphylococcus aureus; Staphylococcus aureus) [µM] | MIC (Staphylococcus aureus; broth microdilution per NCCLS M7-A5, strain not given) [µM] | Haemolysis 4x MIC (erythrocyte; 4 x MIC) [%]
FC(F)(F)c1cc(NC(=S)NCc2cccc(Cl)c2)cc(C(F)(F)F)c1 [Compound A, 1-(3,5-Bis-trifluoromethyl-phenyl)-3-(3-chloro-benzyl)-thiourea] | 0.6 (≈ 0.248 µg/mL) | 0.02 | <1 | 75 | 150 | – | – | –
FC(F)(F)c1cc(NC(=S)NCc2ccc(Cl)cc2)cc(C(F)(F)F)c1 [Compound F, 1-(3,5-Bis-trifluoromethyl-phenyl)-3-(4-chloro-benzyl)-thiourea] | – | < 0.03 | <1 | 150 | 150 | – | – | –
CN[C@H](CC(C)C)C(=O)N[C@H]1C(=O)N[C@@H](CC(N)=O)C(=O)N[C@H]2C(=O)N[C@H]3C(=O)N[C@H](C(=O)N[C@H](C(=O)O)c4cc(O)cc(O)c4-c4cc3ccc4O)[C@H](O)c3ccc(c(Cl)c3)Oc3cc2cc(c3O[C@@H]2O[C@H](CO)[C@@H](O)[C@H](O)[C@H]2O[C@H]2C[C@](C)(N)[C@H](O)[C@H](C)O2)Oc2ccc(cc2Cl)[C@H]1O [Vancomycin, reference compound] | – | – | 0 | 150 | >100 | 0.3 (≈ 0.435 µg/mL) | – | –
O=C(O)c1cn(C2CC2)c2cc(N3CCNCC3)c(F)cc2c1=O [Ciprofloxicin, reference compound] | – | – | 0 | 150 | >100 | – | 1.5 (≈ 0.497 µg/mL) | –
CC(NC(=S)Nc1cc(C(F)(F)F)cc(C(F)(F)F)c1)c1ccc(Br)cc1 (stereo not shown) [Compound C, 1-(3,5-Bis-trifluoromethyl-phenyl)-3-[1-(4-bromo-phenyl)-ethyl]-thiourea] | 0.3 (≈ 0.141 µg/mL) | 0.02 | 15 | 37.5 | – | – | – | –
FC(F)(F)c1cc(NC(=S)NCCOc2ccc(Cl)c(Cl)c2)cc(C(F)(F)F)c1 [Compound E, 1-(3,5-Bis-trifluoromethyl-phenyl)-3-[2-(3,4-dichloro-phenoxy)-ethyl]-thiourea] | 0.3 (≈ 0.143 µg/mL) | 0.02 | – | 18.8 | – | – | – | –
FC(F)(F)c1cc(NC(=S)NCCc2ccc(Cl)cc2Cl)cc(C(F)(F)F)c1 [Compound D, 1-(3,5-Bis-trifluoromethyl-phenyl)-3-[2-(2,4-dichloro-phenyl)-ethyl]-thiourea] | 0.3 (≈ 0.138 µg/mL) | 0.02 | – | – | 150 | – | – | –
FC(F)(F)c1cc(NC(=S)NCc2ccc(Cl)cc2Cl)cc(C(F)(F)F)c1 [Compound B, 1-(3,5-Bis-trifluoromethyl-phenyl)-3-(2,4-dichloro-benzyl)-thiourea] | – | < 0.02 | <1 | 150 | 150 | – | – | –
FC(F)(F)c1cc(NC(=S)NCCc2cccc(Cl)c2)cc(C(F)(F)F)c1 [Compound G, 1-(3,5-Bis-trifluoromethyl-phenyl)-3-[2-(3-chloro-phenyl)-ethyl]-thiourea] | 0.6 (≈ 0.256 µg/mL) | < 0.03 | 0 | 75 | 150 | – | – | –
Cc1onc(-c2c(Cl)cccc2Cl)c1C(=O)N[C@@H]1C(=O)N2[C@@H]1SC(C)(C)[C@@H]2C(=O)O [Dicloxacillin, reference compound] | 0.5 (≈ 0.235 µg/mL) | – | – | 150 | >100 | – | – | 0
